# Legend:
# NHK-young = assay: Cell proliferation test (XTT), NHK-young; format: cell-based, human; settings: peptide 0.05% and 0.1%, 5th hour
# Description: NHK-10 years and NHK-71 years were seeded in 96-well plates at a rate of 10,000 cells per well. After 24 hours, the culture medium was removed and replaced with serum-free medium containing the peptide quantities given in the graphs and reagent XTT. The plates were then placed in the incubator at 37° C. and absorbance readings were taken at 1 h, 2 h, 3 h, 4 h and 5 h. Peptide-free controls were carried out on the same plate.
# The effect of the peptide on cell proliferation was analysed with the aid of a calorimetric test (Cell Proliferation Kit XTT, Roche Diagnostics, Meylan, France) on the cells use for the cell adhesion test, i.e. HT1080, A431, HBL100 cells and normal human keratinocytes from young and elderly individuals.
# The chemical reaction used in the test is based on the production of NADPH by living cells, leading to the reduction of yellow tetrazolium XTT salts to orange formazan salts. Absorbance was measured at 490 nm using an ELISA plate reader. Cells were seeded in 96-well plates at a rate of 10,000 cells per well (6 wells/condition) in KBM-2 culture medium. After 24 hours in culture at 37° C. with 5% CO2, the culture medium was removed and replaced with serum-free medium containing the peptide quantities given in the graphs and the test reagent. The plates were then placed in the incubator at 37° C. and absorbance readings were taken at 1 h, 2 h, 3 h, 4 h and 5 h. […]
# NHK-old = assay: Cell adhesion of NHK-old to peptide co-immobilized with laminin 5; format: cell-based, human
# Description: The peptide (variable quantities indicated) and laminin 5 (fixed quantity 0.2 mg) were co-immobilized in 96-well plates. 3×104 NHK-8 years and 3×104 NHK-63 years were deposited in each well and plates were incubated at 37° C. for 1 hour. After washing, attached cells were fixed and cell adhesion was measured as described in the methodology section. Cell adhesion in the presence of the peptide is given as a percentage of cell adhesion obtained with laminin 5 alone.
# The effect of peptide TALRIRATYGEY (SEQ ID NO. 1) on adhesion to LN5 was verified with NHK-old (FIG. 16). NHK-young ([…]) was tested in parallel and 30,000 cells/well were used in both cases (NHK-old is always limiting as it is obtained in lower amounts). In general, the results obtained in the course of this experiment are less marked than those in the experiment presented in FIG. 14 since (1) the number of cells is lower (30,000 instead of 50,000) and (2) the peptide range tested is also smaller. […] This effect, less marked than the effect found with NHK-young, is probably linked to the decreased adhesion with age of NHK-old to peptide TALRIRATYGEY (SEQ ID NO.1) (FIG. 6).
# [1] = Quantity of peptide immobilized on 96-well plates by amino acid analysis; settings: 18 hours at +4° C.
# Description: The peptide was diluted in sterile PBS. Samples containing the peptide to be assayed were lyophilized by evaporation. They were deposited in a reactor and placed under vacuum in order to eliminate oxygen likely to oxidize certain amino acids. Hydrolysis of the peptide bonds was carried out in a hydrochloric acid mixture (HCL 6N, ⅔), trifluoroacetic acid (TFA, ⅓) at 150° C. for 45 minutes. Gas hydrolysis prevented contamination by ions present in the acids. The samples were then dried and dissolved in a suitable buffer for ion-exchange chromatography (sodium citrate). Ion-exchange chromatography makes it possible to separate amino acids according to their ionic strength and, on leaving the column, they react with a reagent (ninhydrin) to form a dyed complex with primary amines (violet, readable at 570 nm). Ninhydrin also reacts with secondary amines (proline, hydroxyproline) to form a yellow compound that can be read at 440 nm. Two separate chromatograms allow the samples to be analysed.
# A semi-automatic Beckman 6300 analyser optimised for this analysis was used along with Beckman Gold software in order to quantify the chromatograms. […]
# FIG. 17 gives the data obtained in the experiments aimed at identifying the assay conditions for the peptide deposited in 96-well plates and not immobilized. Five experiments were carried out with decreasing quantities of peptide, from 5 μg to 0.7 μg. […]
sequence,measurement,setting,value
TALRIRATYGEY (Human laminin 5) [Peptide 1],mean increase in proliferation compared to the control,NHK-young,≤ 7%
same,effect on adhesion of NHK-old to LN5 (co-immobilized),"NHK-old; NHK-63 years, 30,000 cells/well, laminin 5 fixed quantity 0.2 mg",potentializing effect
same,effect on NHK-old adhesion to LN5 compared with NHK-young,"NHK-old; NHK-old vs NHK-young, 30,000 cells/well",less marked
same,"quantity of peptide remaining in the supernatant after immobilization, of quantity added","[1]; 3.55 μg, 2.56 μg, 1.23 μg and 0.73 μg deposited",approximately 90%
same,mean quantity remaining in solution in the wells,"[1]; Q1, average starting quantity 2.44 μg, five supernatants",2.212 µg

# Source: US7645740B2, “Peptide sequence found in Laminin 5 for treating skin impairments” (Laboratoires d'Anjou Centre National de la Recherche …, priority 2004, dated 2010)
